Values after ≈ are worked out from the molar mass of the structure shown. Marks after values point to notes of the source that are not given here. Numbered stars: 1 amine (or outer) side, 2 acyl side, 3 side chain; on linkers, the order of the positions; unused ones are H or OH. Square brackets hold non-standard residues; d marks the D form. Side chains are listed from the residue outwards. Peptide text beside a SMILES is read from it. * marks the point of attachment. C18 diacid = O=C(O)CCCCCCCCCCCCCCCCC(=O)*; γGlu = O=C(O)[C@H](CCC(=O)[*:2])N[*:1]; AEEA = NCCOCCOCC(=O)O; Aib = CC(C)(N)C(=O)O
Legend:
GC receptor = target: T1, GC receptor (Homo sapiens, UniProt P47871); assay: GC receptor mediated cAMP production in vitro (HEK293 cells transfected with GC receptor); type: cell-based; details: 20 min at 37° C., read-out: GCGR (nM EC50)
T1 construct: expressed in transfected cells; host or cells: HEK293 cells
T1 sequence (P47871 26-477): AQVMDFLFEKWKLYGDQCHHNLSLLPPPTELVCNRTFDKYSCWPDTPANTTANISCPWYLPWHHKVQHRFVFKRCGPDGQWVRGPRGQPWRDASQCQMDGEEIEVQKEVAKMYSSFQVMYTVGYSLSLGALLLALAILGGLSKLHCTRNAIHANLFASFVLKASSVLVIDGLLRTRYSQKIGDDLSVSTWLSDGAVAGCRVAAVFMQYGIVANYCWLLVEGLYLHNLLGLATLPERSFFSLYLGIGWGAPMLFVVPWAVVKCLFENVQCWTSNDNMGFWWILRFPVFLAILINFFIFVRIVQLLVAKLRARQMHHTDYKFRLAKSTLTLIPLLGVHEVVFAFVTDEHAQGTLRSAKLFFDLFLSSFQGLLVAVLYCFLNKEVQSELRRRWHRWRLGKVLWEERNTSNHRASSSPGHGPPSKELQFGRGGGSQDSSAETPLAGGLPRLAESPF
Description: (§1) The medium was removed, the cells were lysed, and cAMP values were detected referring to the detection method described for the assay kit.

physchem = type: physicochemical
Description: 2 mg of the compound was weighed, dissolved in 1 ml of phosphate buffer solutions with different concentrations (10, 20 mM) and different pH values (7.5, 8.0), and centrifuged, and supernatant was taken. The peak area was measured by HPLC (chromatographic column: Aeris widepore XB-C18 3.6 mm, 4.6×150 mm; mobile phase: A: 0.05% TFA, B: 95% acetonitrile; detection wavelength: 214 nm) and compared with a corresponding sample standard solution, and the relative concentration of the test sample solution is calculated.

[1] = Effect on body weight of DIO mice after 14 days' administration; type: in vivo, C57BL/6J mice; details: for body weight reduction (in words): 14 days, conclusions on Tables 3 and 5
Procedure, shortened: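 C57BL/6J mice on H10060 high-fat diet for 34 weeks (DIO; 45.0–52.0 g), 5 per group, dosed subcutaneously once daily for 14 days; controls received saline. Body weight change (%) = (initial − last-day weight)/initial weight; positive values mean loss.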

human GLP-1 receptor = target: T2, human GLP-1 receptor (Homo sapiens, UniProt P43220); assay: GLP-1 receptor mediated cAMP production in vitro; type: cell-based; details: cells transfected with human GLP-1 receptor, 20 min at 37° C., read-out: GLP-1R (nM EC50)
T2 construct: expressed in transfected cells; host or cells: Chinese guinea pig lung cells [sic]
T2 sequence (P43220 24-463): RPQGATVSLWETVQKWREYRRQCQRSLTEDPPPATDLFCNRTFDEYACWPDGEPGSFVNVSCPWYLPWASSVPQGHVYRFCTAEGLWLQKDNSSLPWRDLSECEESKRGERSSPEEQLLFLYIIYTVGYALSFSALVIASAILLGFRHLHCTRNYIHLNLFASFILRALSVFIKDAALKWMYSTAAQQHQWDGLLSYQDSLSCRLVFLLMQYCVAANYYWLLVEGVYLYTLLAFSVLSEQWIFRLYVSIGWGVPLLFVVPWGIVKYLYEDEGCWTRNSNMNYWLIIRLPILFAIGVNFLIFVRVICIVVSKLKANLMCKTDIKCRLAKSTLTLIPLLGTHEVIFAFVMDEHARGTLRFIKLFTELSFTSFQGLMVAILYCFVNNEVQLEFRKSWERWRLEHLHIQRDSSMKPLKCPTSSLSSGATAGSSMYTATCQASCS
Description: as §1

[2] = Short-term administration: food intake and body weight in DIO mice; type: in vivo; details: 30 nmol/kg once every 24 h, twice, − decrease; for Rate of change in food intake (%): at 48 hours vs day before administration; for Body weight change: at 48 hours
Procedure, shortened: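 DIO mice (mean body weight 52.5 g), 5 per group, dosed at 30 nmol/kg every 24 h for two doses, in 10 mM PBS pH 7.4; controls received solvent. Food intake and body weight at 48 h expressed as change rate versus the day before dosing.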

[3] = Glucose tolerance test in glucose-loaded DIO mice; type: in vivo; design: AUC reduction rate (%), Table 6: concentration or dose not given beside the values; details: for glucose tolerance / blood glucose lowering (in words): conclusions on Tables 4 and 6
Procedure, shortened: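 DIO mice fasted 16 h received compound subcutaneously; 1 h later, glucose 1 g/kg was given intraperitoneally. Blood glucose measured at 0.5, 1 and 1.5 h; AUC compared with model control group to give blood glucose inhibition rate (%).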

[4] = Accelerated chemical stability in injection solvent system (HPLC-UV); type: physicochemical; details: 14 days, phosphate buffer pH 7.3 with Tween 80 and phenol, main peak area vs day 0
Procedure, shortened: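 Compound dissolved in 10 mM pH 8.5 sodium hydrogen phosphate buffer, adjusted to pH 7.3, with Tween 80 and phenol added. Solutions stored 14 days at 10 °C and 37 °C; HPLC-UV main-peak area by normalisation compared against day 0.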

[5] = pH 7.5, Solubility, pH 7.5, 10 mM phosphate buffer
[6] = pH 7.5, Solubility, pH 7.5, 20 mM phosphate buffer
[7] = pH 8, Solubility, pH 8.0, 10 mM phosphate buffer
[8] = pH 8, Solubility, pH 8.0, 20 mM phosphate buffer
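Throughout, for Solubility: compound added at 2 mg per mL of phosphate buffer, with the dissolved amount determined in the supernatant.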

SMILES	EC50 (GC receptor) [nM]	solubility (physchem; [5]) [µg/mL]	solubility (physchem; [6]) [µg/mL]	solubility (physchem; [7]) [µg/mL]	solubility (physchem; [8]) [µg/mL]	body weight reduction (in words) ([1]; DIO mice)	EC50 (human GLP-1 receptor) [nM]	Rate of change in food intake (%) [2] [%]	Body weight change [2] [g]	glucose tolerance / blood glucose lowering (in words) ([3]; DIO mice)	Change in purity % (10° C.) ([4]; 10° C.) [%]	Change in purity % (37° C.) ([4]; 37° C.) [%]	body weight change, Table 5 ([1]; Example 4, DIO mice, 14 days' administration, methods as in Example 3, positive values indicate a decrease)	AUC of blood glucose, Table 6 ([3]; Example 4, DIO mice under glucose load, methods as in Example 3) [mmol·h/L]	AUC reduction rate (%), Table 6 ([3]; Example 4, compared with model control group, DIO mice under glucose load)	body weight change rate, Table 3 ([1]; DIO mice, subcutaneous injection every day for 14 days, (initial−last)/initial, positive values indicate a decrease) [%]	AUC of blood glucose, Table 4 ([3]; DIO mice fasted 16 h, glucose 1 g/kg i.p. 1 h after s.c. administration, 0.5, 1, 1.5 h) [mmol·h/L]	AUC reduction rate (%), Table 4 ([3]; blood glucose inhibition rate compared with model control group, DIO mice, glucose 1 g/kg i.p.)
CC(C)C[C@H](NC(=O)[C@H](Cc1c[nH]c2ccccc12)NC(=O)[C@H](CCC(=O)O)NC(=O)[C@@H](NC(=O)[C@H](Cc1ccccc1)NC(=O)[C@H](CCC(=O)O)NC(=O)[C@H](CCCCNC(=O)COCCOCCNC(=O)COCCOCCNC(=O)CC[C@H](NC(=O)CCCCCCCCCCCCCCCCC(=O)O)C(=O)O)NC(=O)[C@H](C)NC(=O)[C@H](CCCNC(=N)N)NC(=O)[C@H](CCCCN)NC(=O)[C@H](CCC(=O)O)NC(=O)[C@H](CCC(=O)O)NC(=O)[C@H](CC(C)C)NC(=O)[C@H](Cc1ccc(O)cc1)NC(=O)[C@H](CCCCN)NC(=O)[C@H](CO)NC(=O)[C@H](Cc1ccc(O)cc1)NC(=O)[C@H](CC(=O)O)NC(=O)[C@H](CO)NC(=O)[C@@H](NC(=O)[C@H](Cc1ccccc1)NC(=O)[C@@H](NC(=O)CNC(=O)[C@H](CCC(N)=O)NC(=O)C(C)(C)NC(=O)[C@@H](N)Cc1c[nH]cn1)[C@@H](C)O)[C@@H](C)O)C(C)C)C(=O)N[C@@H](CCC(=O)O)C(=O)N[C@@H](C)C(=O)NCC(=O)NCC(=O)N1CCC[C@H]1C(=O)N[C@@H](CO)C(=O)N[C@@H](CO)C(=O)NCC(N)=O [Compound 54] (H-H[Aib]QGTFTSDYSKYLEEKRAK([AEEA-AEEA-γGlu-C18 diacid])EFVEWLEAGGPSSG-NH2; N-terminus assumed)	0.274	1260 (≈ 278 µM)	1080 (≈ 238 µM)	1920 (≈ 423 µM)	1180 (≈ 260 µM)	significantly reduced body weight	0.219	−35	-0.9	significantly improved glucose tolerance	–	–	–	–	–	–	–	–
CC[C@H](C)[C@H](NC(=O)[C@H](Cc1ccccc1)NC(=O)[C@H](CCC(=O)O)NC(=O)[C@H](CCCCNC(=O)COCCOCCNC(=O)COCCOCCNC(=O)CC[C@H](NC(=O)CCCCCCCCCCCCCCCCC(=O)O)C(=O)O)NC(=O)[C@H](C)NC(=O)[C@H](CCCCN)NC(=O)[C@H](CCCNC(=N)N)NC(=O)[C@H](CCC(=O)O)NC(=O)[C@H](CC(=O)O)NC(=O)[C@H](CC(C)C)NC(=O)[C@H](Cc1ccc(O)cc1)NC(=O)[C@H](CCCCN)NC(=O)[C@H](CO)NC(=O)[C@H](Cc1ccc(O)cc1)NC(=O)[C@H](CC(=O)O)NC(=O)[C@H](CO)NC(=O)[C@@H](NC(=O)[C@H](Cc1ccccc1)NC(=O)[C@@H](NC(=O)CNC(=O)[C@H](CCC(N)=O)NC(=O)C(C)(C)NC(=O)[C@@H](N)Cc1c[nH]cn1)[C@@H](C)O)[C@@H](C)O)C(=O)N[C@@H](CCC(=O)O)C(=O)N[C@@H](Cc1c[nH]c2ccccc12)C(=O)N[C@@H](CC(C)C)C(=O)N[C@@H](CCC(=O)O)C(=O)NCC(=O)NCC(=O)N1CCC[C@H]1C(=O)N[C@@H](CO)C(=O)N[C@@H](CO)C(=O)NCC(N)=O [Compound 66] (H-H[Aib]QGTFTSDYSKYLDERKAK([AEEA-AEEA-γGlu-C18 diacid])EFIEWLEGGPSSG-NH2; N-terminus assumed)	0.058	1490 (≈ 334 µM)	1420 (≈ 318 µM)	> 2000	1880 (≈ 421 µM)	significantly reduced body weight	0.051	−56	-1.7	significantly improved glucose tolerance	−2.7	−5.1	–	–	–	–	–	–
CC[C@H](C)[C@H](NC(=O)[C@H](Cc1ccccc1)NC(=O)[C@H](CCC(=O)O)NC(=O)[C@H](CCCCN)NC(=O)[C@H](C)NC(=O)[C@H](C)NC(=O)[C@H](CCCNC(=N)N)NC(=O)[C@H](CCC(=O)O)NC(=O)[C@H](CCC(=O)O)NC(=O)[C@H](CC(C)C)NC(=O)[C@H](Cc1ccc(O)cc1)NC(=O)[C@H](CCCCN)NC(=O)[C@H](CO)NC(=O)[C@H](CCCCNC(=O)COCCOCCNC(=O)COCCOCCNC(=O)CC[C@H](NC(=O)CCCCCCCCCCCCCCCCC(=O)O)C(=O)O)NC(=O)[C@H](CC(=O)O)NC(=O)[C@H](CO)NC(=O)[C@@H](NC(=O)[C@H](Cc1ccccc1)NC(=O)[C@@H](NC(=O)CNC(=O)[C@H](CCC(N)=O)NC(=O)C(C)(C)NC(=O)[C@@H](N)Cc1c[nH]cn1)[C@@H](C)O)[C@@H](C)O)C(=O)N[C@@H](C)C(=O)N[C@@H](Cc1c[nH]c2ccccc12)C(=O)N[C@@H](CC(C)C)C(=O)N[C@@H](CCC(=O)O)C(=O)NCC(=O)NCC(=O)N1CCC[C@H]1C(=O)N[C@@H](CO)C(=O)N[C@@H](CO)C(=O)NCC(N)=O [Compound 6] (H-H[Aib]QGTFTSDK([AEEA-AEEA-γGlu-C18 diacid])SKYLEERAAKEFIAWLEGGPSSG-NH2; N-terminus assumed)	0.052	1390 (≈ 321 µM)	980 (≈ 226 µM)	> 2000	1620 (≈ 374 µM)	–	0.439	–	–	–	–	–	28.32	8.99 ± 1.46	54.7** %	–	–	–
CCCCCCCCCCCCCCCC(=O)N[C@@H](CCC(=O)N[C@@H](CCC(=O)NCCCC[C@H](NC(=O)[C@H](CC(=O)O)NC(=O)[C@H](CO)NC(=O)[C@@H](NC(=O)[C@H](Cc1ccccc1)NC(=O)[C@@H](NC(=O)CNC(=O)[C@H](CCC(N)=O)NC(=O)C(C)(C)NC(=O)[C@@H](N)Cc1c[nH]cn1)[C@@H](C)O)[C@@H](C)O)C(=O)N[C@@H](CO)C(=O)N[C@@H](CCCCN)C(=O)N[C@@H](Cc1ccc(O)cc1)C(=O)N[C@@H](CC(C)C)C(=O)N[C@@H](CCC(=O)O)C(=O)N[C@@H](CCC(=O)O)C(=O)N[C@@H](CCCNC(=N)N)C(=O)N[C@@H](C)C(=O)N[C@@H](C)C(=O)N[C@@H](CCCCN)C(=O)N[C@@H](CCC(=O)O)C(=O)N[C@@H](Cc1ccccc1)C(=O)N[C@H](C(=O)N[C@@H](CCC(=O)O)C(=O)N[C@@H](Cc1c[nH]c2ccccc12)C(=O)N[C@@H](CC(C)C)C(=O)N[C@@H](CCC(=O)O)C(=O)N[C@@H](C)C(=O)NCC(=O)NCC(=O)N1CCC[C@H]1C(=O)N[C@@H](CO)C(=O)N[C@@H](CO)C(=O)NCC(N)=O)C(C)C)C(=O)O)C(=O)O [Compound 2] (HELM PEPTIDE1{H.[Aib].Q.G.T.F.T.S.D.K.S.K.Y.L.E.E.R.A.A.K.E.F.V.E.W.L.E.A.G.G.P.S.S.G.[am]}|PEPTIDE2{[CCCCCCCCCCCCCCCC(=O)[*:2]].[gGlu].[gGlu]}$PEPTIDE1,PEPTIDE2,10:R3-3:R2$$$V2.0; N-terminus assumed)	0.0352	> 2000	> 2000	–	–	–	0.219	–	–	–	–	–	–	–	–	22.0	8.06 ± 2.06	61.9** %

Reference: patent US12257287B2, “Glucagon-derived peptide and use thereof” (Tianjin Institute of Pharmaceutical Research Co., Ltd., priority 2018, dated 2025)
